{
  "source": "patent US8450374B2",
  "about": "“Pan-antagonists for the androgen receptor and androgen receptor mutants associated with anti-androgen withdrawal” (priority 2009, dated 2013)",
  "key": {"mouse prostates": {"system": "mouse prostates", "assay": "Prostate apoptosis by TUNEL after IP PAN52", "assay_type": "in vivo, Male C57Bl/6 mice", "details": "25 mg/kg/day IP, day 3 and day 5, TUNEL", "protocol": "FIG. 17. Quantification of apoptotic cells from prostate tissues where mice were treated short-term by intraperitoneal (IP) injection with PAN52 at 25 mg/kg/day versus vehicle control for either 3 days or 5 days (right). Single 20× magnification fields from each of four lobes of mouse prostate glands were counted in each mouse."}, "LNCaP cells [1]": {"system": "LNCaP cells", "assay": "LIVE/DEAD cytotoxicity assay", "assay_type": "cell-based", "details": "1 μM, nine days, RPMI + 10% DCC-FBS", "protocol": "FIG. 1. […] The pictures were taken after nine days of incubation in RPMI supplemented with 10% DCC-FBS plus indicated antiandrogens. B and C. Quantitative analysis of images.\nMedia was changed every 3 days and floating cells were centrifuged down and reseeded into dish. LIVE/DEAD reagent was added after 9 days culturing. Live cells (indicated by green fluorescence) were counted and compared to the number of dead cells (red)."}, "LNCaP cells [2]": {"system": "LNCaP cells", "assay": "Clonogenic assay / in vitro selection for antiandrogen resistance", "assay_type": "cell-based", "details": "RPMI + 10% DCC-FBS", "protocol": "Clonogenic assays are performed by a modification of the procedure described by Nara et al. (Cancer Research 2003, 63, 149-153). […] Media was changed every three days was and documented weekly. If cells reach 95% confluence, the cells were counted and reseeded at a density of 80,000 cell per well."}, "[3]": {"assay": "In vivo tolerability of PAN52", "parameters": "species or system Male C57Bl/6 mice", "details": "25 mg/kg/day IP in 9:1 Cremophor, 3 day or 5 day course"}, "[4]": {"biological_target": "T1, AR protein levels in LNCaP cells (Homo sapiens, UniProt P10275, T878A)", "T1 construct": "endogenous in cells; host or cells: LNCaP", "T1 sequence (P10275 1-920 T878A)": "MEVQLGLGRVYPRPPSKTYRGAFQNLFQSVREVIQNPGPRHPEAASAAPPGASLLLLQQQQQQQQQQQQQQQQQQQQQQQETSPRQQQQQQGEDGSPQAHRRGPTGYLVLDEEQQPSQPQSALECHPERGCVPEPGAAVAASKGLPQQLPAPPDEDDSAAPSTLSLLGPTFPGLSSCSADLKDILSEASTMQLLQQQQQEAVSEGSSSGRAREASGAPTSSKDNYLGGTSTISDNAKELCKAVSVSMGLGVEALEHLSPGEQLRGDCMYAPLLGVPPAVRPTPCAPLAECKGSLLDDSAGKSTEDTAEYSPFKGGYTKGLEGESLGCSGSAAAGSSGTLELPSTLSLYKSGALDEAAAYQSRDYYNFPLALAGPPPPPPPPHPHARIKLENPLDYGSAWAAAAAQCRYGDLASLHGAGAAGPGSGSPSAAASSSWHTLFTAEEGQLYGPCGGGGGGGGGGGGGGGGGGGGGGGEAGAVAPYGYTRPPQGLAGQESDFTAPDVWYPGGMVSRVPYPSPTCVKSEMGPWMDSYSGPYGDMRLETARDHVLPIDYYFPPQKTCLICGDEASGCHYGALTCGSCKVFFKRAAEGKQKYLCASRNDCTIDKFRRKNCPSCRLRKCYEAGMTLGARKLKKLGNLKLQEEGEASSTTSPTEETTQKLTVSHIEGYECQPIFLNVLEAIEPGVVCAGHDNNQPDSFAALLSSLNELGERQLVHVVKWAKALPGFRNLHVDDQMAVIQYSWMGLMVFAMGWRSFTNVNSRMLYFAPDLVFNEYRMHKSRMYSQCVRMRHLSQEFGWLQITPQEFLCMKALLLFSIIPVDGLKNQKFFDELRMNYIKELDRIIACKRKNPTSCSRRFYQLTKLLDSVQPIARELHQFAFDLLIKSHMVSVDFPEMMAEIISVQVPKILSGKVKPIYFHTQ", "assay": "AR downregulation by western blot, LNCaP cells", "assay_type": "cell-based", "details": "LNCaP cells, 10, 50 or 100 μM, 24 h", "protocol": "Compounds that down regulate the levels of AR in prostate cancer may be effective in androgen dependent cells and anti-androgen resistant cells that over express the androgen receptor. […] LNCaP or CRW22RV1 cells were treated with 10 μM, 50 μM or 100 μM compound for 24 h. Cells were harvested and lysed. Cell lysates were analyzed by SDS-PAGE followed by immunostaining with anti-AR and anti-lamin antibodies (see FIGS. 15 and 16)."}, "GFP-AR": {"biological_target": "T2, GFP-AR (Homo sapiens, UniProt P10275)", "T2 construct": "expressed in transfected cells; host or cells: CV-1 monkey kidney cells", "T2 sequence (P10275 1-920)": "T1 sequence (P10275 1-920 T878A) with A878T", "assay": "Nuclear localization of GFP-AR in CV-1 cells", "assay_type": "cell-based", "details": "2 h after ligand addition; DHT 10 μM, other ligands 100 μM", "quoted_text": "Nuclear localization of GFP-AR in CV-1 cells grown in 10% charcoal stripped CCS/DMEM.\nCV-1 monkey kidney cells were seeded in a 12 well plate at a concentration of 50,000 cells per well. After 24 h, the cells were transfected with GFP-AR in a solution of Opti-MEM and Lipofectamine 2000, and incubated overnight. The cells were then imaged on a fluorescent microscope, followed by the addition of 6 respective ligands, and control (DMSO vehicle). […] The cells were incubated for two hours and again imaged. The cells were fixed, and stained (DAPI) to image the nucleus."}},
  "note": "Changes are numbered by the printed parent chain. “Also recorded” adds a separate entry of the source.",
  "data": [
    {"smiles": "CN(C)CCCOc1cccc(-c2ccccc2S(=O)(=O)CC(C)(O)C(=O)Nc2ccc(C#N)c(C(F)(F)F)c2)c1", "note": "(stereo not drawn) [PAN52]", "values": [
      {"measurement": "Apoptosis in prostate compared to control", "setting": "mouse prostates", "value": "increase in apoptosis; also recorded: induced rapid apoptosis"},
      {"measurement": "Viable cells (green) in fluorescence images", "setting": "LNCaP cells [1]", "value": "almost all cells"},
      {"measurement": "Ability to evade resistance in in vitro selections (resistant LNCaP clones)", "setting": "LNCaP cells [2]", "value": "evade resistance"},
      {"measurement": "Behavior in grooming or feeding", "setting": "[3]", "value": "no abnormal behavior in grooming or feeding"},
      {"measurement": "AR protein levels relative to bicalutamide, DHT or DMSO controls", "setting": "[4]", "value": "downregulation of AR protein levels"},
      {"measurement": "Nuclear localization of GFP-AR fluorescence", "setting": "GFP-AR", "value": "little to no nuclear localization"}
    ]}
  ]
}
